Where a name gives a salt, the structure may show the parent alone.
Key:
MCF-7 cells = experiment: ROS generation, H2DCFDA/DAPI double staining; type: cell-based, human
Method: MCF-7 cells were seeded in 6-well plates at 1 × 10^5 cells per well in 2 mL medium. Afterwards, cells were treated with the mentioned compounds for 1 and 3 h, respectively. Next, cells were washed, and 20 µM of H2DCFDA was added for 30 min. After that, 10 µg/mL of DAPI was added to observe the nuclear DNA of cells. The results were obtained with the use of a Nikon ECLIPSE Ti fluorescence microscope (Nikon, Tokyo, Japan), followed by further assessment via ImageJ software version 1.54k (Bethesda, MD, USA).
H2DCFDA (green fluorescence) was utilized to mark oxidative stress, and DAPI (blue fluorescence) to stain nuclear genetic material.

Bax = experiment: Bax, anti-Bax FITC antibody flow cytometry; type: cell-based, human; conditions: 5 µM, 24 h, MCF-7
Method: To evaluate the effects of the tested compounds on the concentration of Bax protein, anti-Bax FITC-conjugated antibody was applied. MCF-7 cells were seeded on 6-well plates at 5 × 10^6 cells per well, followed by incubation for 24 h. Afterwards, the cells were treated for 24 h with new 4-thiazolidinone derivatives (Les-6416, Les-6418, Les-6381, Les-6423, and Les-6424) at a concentration of 5 µM. Then, cells were collected and incubated with 4% formaldehyde for 15 min at RT. Next, cells were washed with an excess amount of PBS, followed by permeabilization by adding ice-cold 90% methanol and incubation for 60 min in an ice bath. Cells were again washed with an excess of PBS and resuspended in 100 µL of diluted primary antibody, prepared in antibody dilution buffer at a 1:100 dilution, and incubated for 60 min at room temperature in the dark. Cells were washed, resuspended in 0.3 mL, and transferred to the tubes for immediate assessment using a BD FACSCanto II flow cytometer (Becton Dickinson Biosciences, San Jose, CA, USA). For each sample, 1 × 10^4 events were analyzed. The results were analyzed using FACSDiva software Version 6.1.3 (BD Biosciences Systems, San Jose, CA, USA).
Another important protein for the intrinsic pathway of apoptosis is a pro-apoptotic member of the Bcl-2 family-Bax. […]

MDA-MB-435 = type: cell-based; conditions: for Growth %: MDA-MB-435, 10 μM, one dose, 48 h
MDA-MB-468 = type: cell-based
UACC-62 = type: cell-based
SN12C = type: cell-based
DU-145 = type: cell-based
LOX IMVI = type: cell-based; conditions: MG_MID_60/value
CCRF-CEM = type: cell-based
SK-OV-3 = type: cell-based
BT-549 = type: cell-based
Melanoma = type: cell-based
OVCAR-3 = type: cell-based
HCC -2998 = type: cell-based
CAKI-1 = type: cell-based
A549/ATCC = type: cell-based
MDA-MB-231/ATCC = type: cell-based
KM12 = type: cell-based
NCI-H266 = type: cell-based
ACHN = type: cell-based
[1] = Homo sapiens, 48 h, read-out: LC50 (the source's name)

## COc1cccc2c1C(=O)c1c(O)c3c(c(O)c1C2=O)C[C@@](O)(C(=O)CO)C[C@@H]3O[C@H]1C[C@H](N)[C@H](O)[C@H](C)O1 [DOX, Doxorubicin hydrochloride, reference compound]
MCF-7 cells; 0.5 µM, 3 h
  ROS generation versus control: approximately two times more than the untreated control

## COc1cc(NC2=NC(=O)C(=Cc3ccc4cc[nH]c4c3)S2)cc(OC)c1OC [Les-6416, 5-((1H-Indol-6-yl)methylene)-2-((3,4,5-trimethoxyphenyl)amino)thiazol-4(5H)-one]
Bax
  Bax positive cells, cell population: 12.27 ± 0.45%
MDA-MB-435
  Growth %: −33.26%
MDA-MB-468; MDA-MB-468, 10 μM, one dose, 48 h
  Growth %: 1.33%
UACC-62; UACC-62, 10 μM, one dose, 48 h
  Growth %: 18.03%
MCF-7 cells; 2.5 µM, 3 h
  ROS generation versus control: approximately two times more than the untreated control
MCF-7 cells; 5 µM, 1 h
  ROS generation versus control: two times more than the control
MCF-7 cells; 5 µM, 3 h
  ROS generation versus control: approximately a threefold increase

## COc1cc(NC2=NC(=O)C(=Cc3c[nH]c4ccccc34)S2)cc(OC)c1OC [Les-6418, 5-((1H-Indol-3-yl)methylene)-2-((3,4,5-trimethoxyphenyl)amino)thiazol-4(5H)-one]
SN12C; 10 μM, one dose, 48 h
  Growth %: −88.00%
SN12C; 48 h
  TGI: 15.1 µM
SN12C; Homo sapiens, 48 h
  GI50: 3.85 µM
SN12C; [1]
  CC50: 43.6 µM
SN12C; MG_MID_60/value
  SI (TGI): 1.23
Bax
  Bax positive cells, cell population: 8.27 ± 0.58%
DU-145; DU-145, 48 h
  TGI: 17.2 µM
DU-145; DU-145, MG_MID_60/value
  SI (TGI): 1.08
DU-145; Homo sapiens, DU-145, 48 h
  GI50: 4.63 µM
DU-145; Homo sapiens, DU-145, 48 h, read-out: LC50 (the source's name)
  CC50: 47.4 µM
LOX IMVI
  SI (TGI): 1.34
CCRF-CEM; 48 h
  TGI: > 100 µM
CCRF-CEM; Homo sapiens, 48 h
  GI50: 2.09 µM
CCRF-CEM; [1]
  CC50: > 100 µM
CCRF-CEM; MG_MID_60/value
  SI (TGI): 0.19
SK-OV-3; Homo sapiens, SK-OV-3, 48 h
  GI50: 2.56 µM
SK-OV-3; Homo sapiens, SK-OV-3, 48 h, read-out: LC50 (the source's name)
  CC50: 38.5 µM
SK-OV-3; SK-OV-3, 48 h
  TGI: 10.3 µM
SK-OV-3; SK-OV-3, MG_MID_60/value
  SI (TGI): 1.81
BT-549; BT-549, 48 h
  TGI: 10.7 µM
BT-549; BT-549, MG_MID_60/value
  SI (TGI): 1.74
BT-549; Homo sapiens, BT-549, 48 h
  GI50: 0.81 µM
BT-549; Homo sapiens, BT-549, 48 h, read-out: LC50 (the source's name)
  CC50: 39.2 µM
MDA-MB-435; Homo sapiens, MDA-MB-435, 48 h
  GI50: 0.28 µM
  LC50: 14.2 µM
MDA-MB-435
  Growth %: −77.11%
MDA-MB-435; MDA-MB-435, 48 h
  TGI: 0.940 µM
MDA-MB-435; MDA-MB-435, MG_MID_60/value
  SI (TGI): 19.8
Melanoma; Homo sapiens, Melanoma subpanel mean, read-out: MG_MID GI50
  GI50: 3 µM
Melanoma; Homo sapiens, Melanoma subpanel mean, read-out: MG_MID LC50
  CC50: 43.1 µM
Melanoma; Melanoma subpanel mean
  MG_MID TGI: 14.9 µM
Melanoma; Melanoma subpanel, MG_MID_60/value
  SI (MG_MID TGI): 1.25
MDA-MB-468; Homo sapiens, MDA-MB-468, 48 h
  GI50: 0.657 µM
MDA-MB-468; Homo sapiens, MDA-MB-468, 48 h, read-out: LC50 (the source's name)
  CC50: 34.3 µM
MDA-MB-468; MDA-MB-468, 48 h
  TGI: 6.23 µM
MDA-MB-468; MDA-MB-468, MG_MID_60/value
  SI (TGI): 2.99
OVCAR-3; Homo sapiens, OVCAR-3, 48 h
  GI50: 0.517 µM
OVCAR-3; Homo sapiens, OVCAR-3, 48 h, read-out: LC50 (the source's name)
  CC50: 34 µM
OVCAR-3; OVCAR-3, 10 μM, one dose, 48 h
  Growth %: 76.96%
OVCAR-3; OVCAR-3, 48 h
  TGI: 5.32 µM
OVCAR-3; OVCAR-3, MG_MID_60/value
  SI (TGI): 3.50
HCC -2998; HCC -2998, 48 h
  TGI: 20.7 µM
HCC -2998; HCC -2998, MG_MID_60/value
  SI (TGI): 0.90
HCC -2998; Homo sapiens, HCC -2998, 48 h
  GI50: 6.36 µM
HCC -2998; Homo sapiens, HCC -2998, 48 h, read-out: LC50 (the source's name)
  CC50: 47.8 µM
CAKI-1; CAKI-1, 48 h
  TGI: 10.3 µM
CAKI-1; CAKI-1, MG_MID_60/value
  SI (TGI): 1.81
CAKI-1; Homo sapiens, CAKI-1, 48 h
  GI50: 0.84 µM
CAKI-1; Homo sapiens, CAKI-1, 48 h, read-out: LC50 (the source's name)
  CC50: 33.1 µM
A549/ATCC; 48 h
  TGI: 16.5 µM
A549/ATCC; Homo sapiens, 48 h
  GI50: 2.84 µM
  LC50: 73.6 µM
A549/ATCC; MG_MID_60/value
  SI (TGI): 1.13
MDA-MB-231/ATCC; 48 h
  TGI: 18.8 µM
MDA-MB-231/ATCC; Homo sapiens, 48 h
  GI50: 4.77 µM
MDA-MB-231/ATCC; [1]
  CC50: 55.2 µM
MDA-MB-231/ATCC; MG_MID_60/value
  SI (TGI): 0.99
UACC-62; Homo sapiens, UACC-62, 48 h
  GI50: 4.75 µM
UACC-62; Homo sapiens, UACC-62, 48 h, read-out: LC50 (the source's name)
  CC50: 48.3 µM
UACC-62; UACC-62, 48 h
  TGI: 19.7 µM
UACC-62; UACC-62, MG_MID_60/value
  SI (TGI): 0.94
KM12; Homo sapiens, KM12, 48 h
  GI50: 0.977 µM
KM12; Homo sapiens, KM12, 48 h, read-out: LC50 (the source's name)
  CC50: 70.7 µM
KM12; KM12, 48 h
  TGI: 16.8 µM
KM12; KM12, MG_MID_60/value
  SI (TGI): 1.11
NCI-H266; Homo sapiens, NCI-H266, 48 h
  GI50: 3.18 µM
NCI-H266; Homo sapiens, NCI-H266, 48 h, read-out: LC50 (the source's name)
  CC50: 68.8 µM
NCI-H266; NCI-H266, 48 h
  TGI: 17.4 µM
NCI-H266; NCI-H266, MG_MID_60/value
  SI (TGI): 1.07
ACHN; 48 h
  TGI: 12.0 µM
ACHN; Homo sapiens, 48 h
  GI50: 3.2 µM
ACHN; [1]
  CC50: 36.1 µM
ACHN; MG_MID_60/value
  SI (TGI): 1.55

Reference: publication PMC12190436, “5-Ene-2-arylaminothiazol-4(5H)-ones Induce Apoptosis in Breast Cancer Cells” (Cells, 2025)
